# In patent publication US9334242B2, “Compounds for treatment of cancer” (GTX, INC., priority 2010, dated 2016):
# Read-outs that look alike come from different tables or passages of the source.
# Columns and labels:
# A375 melanoma xenografts = test: A375 tumor xenograft study in athymic nude mice; type: in vivo, mouse; details: for T − C: tumor growth delay
# From the text: (§1) PC-3 and A375 tumor xenograft studies.
# [1] = tested on: melanoma (B16-F1, A375, WM-164) and prostate cancer (LNCaP, PC-3, DU 145, PPC-1) cell lines; test: Cytotoxicity SRB assay, ranges or averages quoted over the melanoma and prostate cancer cell lines; type: cell-based
# [2] = Aqueous solubility, Multiscreen Solubility Filter Plate, PBS pH 7.4, LC-MS/MS; type: physicochemical; details: HCl salt of 2r
# PC-3 = test: Cytotoxicity / cell growth inhibition, SRB assay; details: Homo sapiens
# B16-F1 melanoma tumors = test: In vivo anti-tumor activity, B16-F1 melanoma in C57/BL mice; set-up: species or system mouse; details: 60 mg/kg i.p. daily, 14 days, C57/BL mice (positive control)
# Bovine brain tubulin = Bovine brain tubulin (Bos taurus, UniProt P81947+Q6B856); test: In vitro tubulin polymerization assay; type: biochemical; details: 10 μM
# Description: In Vitro Tubulin Polymerization Assay.
# In vitro microtubule polymerization assay. […] The spectrophotometer was maintained at 37° C. for tubulin polymerization.
# A375 cells = test: Apoptosis detection by ELISA (cytoplasmic DNA-histone complexes); type: cell-based, human; details: 24 h
# From the text: (§2) Apoptosis detection by ELISA. Quantification of the enrichment of mono- and oligonucleosomes in the cytoplasm was used to determine the ability of the compounds to induce apoptosis (cell death detection ELISA PLUS, Roche, Germany) following the manufacturer's instructions.
# PC-3 cells = test: as above; type: cell-based, human; details: 24 h
# From the text: as §2
# [3] = tested on: PC-3 prostate tumor xenograft; test: PC-3 tumor xenograft study in nude mice; type: in vivo, mouse; details: for % T/C: PC-3 xenograft; for mice that lost more than 15% body weight: PC-3 xenograft study
# From the text: as §1
# [4] = Pharmacokinetic study in ICR mice; details: ICR mice, 15 mg/kg i.v.
# in vivo [5] = details: female, Sprague-Dawley, rat, plasma, iv, 5 mg/kg
# in vivo [6] = details: male, ICR, mouse, plasma, iv, 10 mg/kg
# [7] = tested on: T1, tubulin colchicine binding site; test: [3H]-colchicine competition-binding scintillation proximity assay; details: SPA
# T1 construct: […]; other: SPA
# B16-F1 melanoma cells = test: Melanoma colony formation assay in soft agar; type: cell-based, mouse; details: 14 days, tested 20, 100, 500 nM
# Description: B16-F1 melanoma cells were plated at a colony-forming density (2000 cells per well on six-well plates) on top of 0.8% base agar. Cells were grown in 0.4% agar together with DMEM medium supplemented with fetal bovine serum and an antibiotic-antimycotic solution at 37° C. in an atmosphere of 95% air and 5% CO2. […] Compounds were added to the media from 1-mM DMSO stock solutions, and a corresponding dilution of DMSO was used as control. Cells were grown for 14 days. Plates were photographed, and the number of colonies was measured by Artek 880 Automated Colony Counter (Artek Systems Corporation, Farmingdale, N.Y.).
# WM-164 melanoma cells = test: Microtubule imaging (immunofluorescence, Cellomics Cytoskeleton rearrangement kit); type: cell-based, human; details: WM-164 cells, 18 h
# From the text: Primary antibody for tubulin and fluorescence-labeled secondary antibody were subsequently added to the cells. Cell nuclei were stained by DAPI. Whole Cell Stain Green was also applied to all cells. All images were acquired with an Olympus IX71 inverted fluorescence microscope (Olympus Corp., Tokyo, Japan) with overlays from separate images of tubulin (red), nuclei (blue), and whole cells (green).
# ICR mice = test: Rotarod test (in vivo neurotoxicity); set-up: species or system mouse; details: 1h 5 or 15 mg/kg, vinblastine 0.5 mg/kg, i.p. daily to day 31
# [8] = tested on: prostate cancer cells (LNCaP, DU 145, PC-3, PPC-1); test: Cytotoxicity SRB assay, values quoted for the prostate cancer cell panel; type: cell-based; details: Homo sapiens, read-out: IC50s against prostate cancer cells (range)
# PPC-1 = test: Cytotoxicity / cell growth inhibition, SRB assay; details: Homo sapiens, PPC-1, 96 h, read-out: IC50 ± SEM (nM) PPC-1, Table 12; 96 h exposure
# [9] = quoted in the text to Table 2, read-out: IC50 (range or bound over the tested cancer cell lines)
# [10] = range given, read-out: IC50 (range over the tested cancer cell lines)
# [11] = after 20 min incubation, compared to vehicle (Example 11D)
structure (smiles),measurement,setting,value
COc1cc(C(=O)c2csc(-c3ccccc3)n2)cc(OC)c1OC [SMART-H],T − C,"A375 melanoma xenografts; Melanoma (A375) xenograft, 20 mg/kg i.p.",10 days
"COc1cc(/C(=N\O)c2csc(-c3ccccc3)n2)cc(OC)c1OC [2e-trans, (E)-(2-Phenylthiazol-4-yl)(3,4,5-trimethoxyphenyl)methanone oxime]",IC50,[1]; [9],> 10 µM
"COc1cc(C(=O)c2cccc(-c3ccccc3)c2)cc(OC)c1OC [1a, Biphenyl-3-yl(3,4,5-trimethoxyphenyl)methanone]",IC50 (range over the tested cancer cell lines),[1]; range given,hundreds of nanomolar range
"COc1cc(C(=O)c2coc(-c3ccccc3)n2)cc(OC)c1OC [36a, (2-Phenyl-oxazol-4-yl)-(3,4,5-trimethoxy-phenyl)-methanone]",IC50 (range over the tested cancer cell lines),[1]; range given,hundreds of nanomolar range
"COc1cc(C(=O)c2csc(-c3ccc(CN)cc3)n2)cc(OC)c1OC.Cl [2r, (2-(4-(Aminomethyl)phenyl)thiazol-4-yl)(3,4,5-trimethoxyphenyl)methanone hydrochloride]",IC50,[1]; [10],0.013 to 0.08 µM
same,increase of solubility (fold) over compound 1h,[2],over 35 fold
same,IC50,"PC-3; PC-3, 96 h, read-out: IC50 ± SEM (nM) PC-3, SRB assay, 96 h of treatment",80 nM
COc1cc(C(=O)c2csc(-c3ccc(F)cc3)n2)cc(OC)c1OC [SMART-F],Total log cell kill,"A375 melanoma xenografts; Melanoma (A375) xenograft, 15 mg/kg i.p., doubling time 4.6 d",0.7
same,T − C,"A375 melanoma xenografts; Melanoma (A375) xenograft, 15 mg/kg i.p.",11 days
"CN(C)/N=N/c1[nH]cnc1C(N)=O [DTIC, 5-(3,3,-dimethyl-1-triazenyl)-imidazole-4-carboxamide]",tumor volume reduction,B16-F1 melanoma tumors,51%
"COc1cc(C(=NC#N)c2csc(-c3ccccc3)n2)cc(OC)c1O [compound 32, N-((4-hydroxy-3,5-dimethoxyphenyl)(2-phenylthiazol-4-yl)methylene)cyanamide]",IC50,"PC-3; PC-3, read-out: IC50 (nM) PC-3, Table 6A",229 nM
COc1cc(C(=O)c2csc(-c3ccc(F)cc3)n2)cc(OC)c1OC [2k],inhibition of tubulin polymerization,Bovine brain tubulin; 15 min (Example 22),90%
same,concentration inducing apoptosis,A375 cells,50 nM
same,concentration inducing apoptosis,PC-3 cells,50 nM
same,"% T/C, A375","A375 melanoma xenografts; 1h 20 mg/kg, 2k 15 mg/kg, i.p.",29%
same,"tumor volume, A375","A375 melanoma xenografts; 1h 20 mg/kg, 2k 15 mg/kg, i.p., 34 days",722 mm^3
same,% T/C,[3]; 5 mg/kg i.p.,21%
same,% T/C,[3]; 15 mg/kg i.p.,24%
same,mice that lost more than 15% body weight,[3]; 15 mg/kg i.p.,2 out of 7
"COc1cc(C(=O)c2csc(-c3ccc(O)cc3)n2)cc(OC)c1OC [2l, (2-(4-Hydroxyphenyl)thiazol-4-yl)(3,4,5-trimethoxyphenyl)methanone]",IC50,[1]; [10],0.076 to 0.116 µM
same,inhibition of tubulin polymerization,Bovine brain tubulin; 15 min (Example 22),55%
same,concentration inducing apoptosis,A375 cells,greater than or equal to 200 nM
same,concentration inducing apoptosis,PC-3 cells,greater than or equal to 200 nM
same,% T/C,[3]; 50 mg/kg i.p.,34%
same,Vss relative to that of 1h and 2k (times higher),[4],2-3 times
"COc1cc(C(=O)[C@H]2COC(c3ccccc3)=N2)cc(OC)c1OC [35a, (2R)-(2-Phenyl-4,5-dihydro-oxazol-4-yl)-(3,4,5-trimethoxy-phenyl)-methanone]",IC50 (range over the tested cancer cell lines),[1]; range given,hundreds of nanomolar range
"COc1cc(C(=O)c2c[nH]c(-c3ccc(Cl)cc3)n2)cc(OC)c1OC [12fa, (2-(4-chlorophenyl)-1H-imidazol-4-yl)(3,4,5-trimethoxyphenyl)methanone]",Vd,in vivo [5],1.9 L/kg
same,clearance,in vivo [5],0.96 L/h/kg
same,Vd,in vivo [6],4 L/kg
same,clearance,in vivo [6],3.66 L/h/kg
"COc1cc(C(=NC#N)c2csc(-c3ccccc3)n2)cc(OC)c1OC [2j, N-((2-phenylthiazol-4-yl)(3,4,5-trimethoxyphenyl)methylene)cyanamide]",inhibition of tubulin polymerization,Bovine brain tubulin; [11],64%
COc1cc(C(=O)c2csc(-c3ccc4[nH]ccc4c3)n2)cc(OC)c1OC [66a],IC50,[1]; [10],0.007 to 0.025 µM
same,inhibition of tubulin polymerization,Bovine brain tubulin; [11],81%
"COc1cc(/C(=N/O)c2csc(-c3ccccc3)n2)cc(OC)c1OC [2e-cis, (Z)-(2-Phenylthiazol-4-yl)(3,4,5-trimethoxyphenyl)methanone oxime]",IC50,[1]; [9],0.1 to 0.3 µM
"COc1cc(C(=O)c2c[nH]c(-c3ccc(C)cc3)n2)cc(OC)c1OC [12da, (2-(p-tolyl)-1H-imidazol-4-yl)(3,4,5-trimethoxyphenyl)methanone]",inhibition of tubulin polymerization,Bovine brain tubulin; 15 min (Example 16),completely inhibited
same,competition for the tubulin colchicine binding site (in words),[7],highest binding affinity
same,concentration with effective inhibition of B16-F1 melanoma colony formation,B16-F1 melanoma cells,20 nM
same,effect on microtubule arrangement,WM-164 melanoma cells,microtubule fragmentation
"CC[C@]1(O)C[C@@H]2CN(CCc3c([nH]c4ccccc34)[C@@](C(=O)OC)(c3cc4c(cc3OC)N(C)[C@H]3[C@@](O)(C(=O)OC)[C@H](OC(C)=O)[C@]5(CC)C=CCN6CC[C@]43[C@@H]65)C2)C1 [vinblastine, reference compound]",time on the rotating rod compared to the vehicle group,ICR mice,gradually reduced the time
"COc1ccc(-c2nc(C(=O)c3ccc(F)cc3)c[nH]2)cc1 [12cb, (4-fluorophenyl)(2-(4-methoxyphenyl)-1H-imidazol-4-yl)methanone]",concentration with effective inhibition of B16-F1 melanoma colony formation,B16-F1 melanoma cells,20 nM
same,effect on microtubule arrangement,WM-164 melanoma cells,microtubule fragmentation
"Cc1ccc(-c2nc(C(=O)c3ccc(F)cc3)c[nH]2)cc1 [12 db, (4-fluorophenyl)(2-(p-tolyl)-1H-imidazol-4-yl)methanone]",inhibition of tubulin polymerization,Bovine brain tubulin; 15 min (Example 16),~80%
"COc1cc(C(=O)c2csc(Nc3ccccc3)n2)cc(OC)c1OC [5a, (2-(Phenylamino)thiazol-4-yl)(3,4,5-trimethoxyphenyl)methanone]",inhibition of tubulin polymerization,Bovine brain tubulin; [11],78%
"O=C(c1ccc(F)cc1)c1c[nH]c(-c2ccc(OCc3ccccc3)cc2)n1 [12jb, (2-(4-(benzyloxy)phenyl)-1H-imidazol-4-yl)(4-fluorophenyl)methanone]",increase in activity compared with 12 kb (fold),[1],440 fold
"COc1cc(C(=O)c2csc(-c3ccc(CN(C)C)cc3)n2)cc(OC)c1OC.Cl [2u, (2-(4-((Dimethylamino)methyl)phenyl)thiazol-4-yl)(3,4,5-trimethoxyphenyl)methanone hydrochloride]",IC50 (range over the tested cancer cell lines),[1]; range given,abrogated activity
"CNCc1ccc(-c2nc(C(=O)c3cc(OC)c(OC)c(OC)c3)cs2)cc1.Cl [2s, (2-(4-((Methylamino)methyl)phenyl)thiazol-4-yl)(3,4,5-trimethoxyphenyl)methanone hydrochloride]",IC50 (range over the tested cancer cell lines),[1]; range given,abrogated activity
"COc1cc(C(=O)c2cccc(-c3ccccc3)n2)cc(OC)c1OC [1c, (6-Phenylpyridin-2-yl)(3,4,5-trimethoxyphenyl)methanone]",IC50,[8],0.012 to 0.035 µM
"COc1cc(C(=O)c2csc(-c3ccccc3)n2)cc(OC)c1OC [1h, (2-Phenyl-thiazol-4-yl)-(3,4,5-trimethoxy-phenyl)-methanone]",concentration inducing apoptosis,A375 cells,50 nM
same,concentration inducing apoptosis,PC-3 cells,50 nM
same,mice that lost more than 15% body weight,[3]; 15 mg/kg i.p.,1 of 8
same,time on the rotating rod compared to the vehicle group,ICR mice,no significant difference
"CN(C)c1ccc(-c2nc(C(=O)c3ccc(F)cc3)c[nH]2)cc1 [12gb, (2-(4-(dimethylamino)phenyl)-1H-imidazol-4-yl)(4-fluorophenyl)methanone]",IC50,PPC-1,4 nM
"COc1ccc(S(=O)(=O)Nc2cccnc2Nc2ccc(O)cc2)cc1 [ABT-751, reference compound]",effect on microtubule arrangement,WM-164 melanoma cells,microtubule fragmentation
